{
  "source": "patent US9987287B2",
  "about": "“Orally disintegrating solid dosage unit containing an estetrol component” (Donesta Bioscience B.V., priority 2013, dated 2018)",
  "key": {"[1]": {"test": "Dissolution into saliva, anhydrous vs monohydrate", "assay_type": "physicochemical", "settings": "compared with estetrol monohydrate"}, "[2]": {"settings": "dose-dependent; cited from earlier work"}, "[3]": {"tested_on": "DMBA mammary tumour model", "settings": "extent and dose level similar to tamoxifen and to ovariectomy; cited from earlier work"}, "[4]": {"tested_on": "estrogen receptors", "settings": "in vitro; cited from earlier work"}, "[5]": {"tested_on": "human breast cancer cells", "settings": "in the presence of 17β-estradiol, in vitro; cited from earlier work"}, "[6]": {"settings": "humans; cited from earlier work"}, "[7]": {"molecular_target": "T1, sex hormone binding globulin (SHBG) (Homo sapiens, UniProt P04278)", "T1 sequence (P04278 30-402)": "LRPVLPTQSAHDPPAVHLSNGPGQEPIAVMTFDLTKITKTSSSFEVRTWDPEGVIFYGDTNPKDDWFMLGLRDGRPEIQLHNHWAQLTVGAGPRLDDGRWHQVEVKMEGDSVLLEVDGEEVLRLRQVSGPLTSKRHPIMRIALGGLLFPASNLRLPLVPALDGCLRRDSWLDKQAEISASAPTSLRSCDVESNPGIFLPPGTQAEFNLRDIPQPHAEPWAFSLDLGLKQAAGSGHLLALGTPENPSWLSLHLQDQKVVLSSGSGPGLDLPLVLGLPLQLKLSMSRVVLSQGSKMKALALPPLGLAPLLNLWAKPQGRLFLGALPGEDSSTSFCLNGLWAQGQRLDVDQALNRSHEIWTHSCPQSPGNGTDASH", "settings": "cited from earlier work"}, "[8]": {"tested_on": "production of SHBG", "settings": "in vitro; cited from earlier work"}, "[9]": {"test": "Randomized, open-label, single dose, two-period, cross-over pharmacokinetic study, sublingual vs oral estetrol", "assay_type": "in vivo, healthy female postmenopausal volunteers", "settings": "10 mg single dose", "description": "A randomized, open-label, single dose, two-period, cross-over, pharmacokinetic study is conducted to compare sublingual bioavailability of 10 mg estetrol administered in two 100 mg tablets (each containing 5 mg estetrol and having the same composition as the tablets described in Example 7) with oral availability of estetrol contained in a 83 mg tablet containing 10 mg estetrol. These tablets are administered sublingually and orally to healthy female postmenopausal volunteers under fasting conditions.\nTwelve healthy postmenopausal female subjects are selected on the basis of the following criteria: Caucasian race, age of 45-65 years (inclusive), nonsmokers or past smokers (at least 6 months before dosing), body-mass index (BMI)=18.5 to 30 kg/m^2 (inclusive at the time of the screening).\nAt the start of the first and the second period of the study, between 07:00 am and 07:28 am, 6 subjects receive a single dose of the sublingual formulation of estetrol by administering two estetrol tablets (tablet weight 100 mg; 5 mg estetrol each) and 6 subjects receive a single oral dose of the oral estetrol formulation by administering one estetrol tablet (tablet weight 83 mg; 10 mg estetrol), ingested together with 200 ml water.\nSubjects are required to fast for at least 10 hours prior to tablet administration and for at least 4 hours after administration. Drinking of water or beverages is not permitted within 1 hour before the drug administration. Subjects receive 200 ml of water 1 hour prior to and 2 hours after tablet administration. Subjects are free to drink water and fruit tea from 4 hours following the tablet administration. Standardized meals are provided 10.5 hours before and 4, 6, 9, and 13 hours after tablet administration.\nThe estetrol concentration in the collected blood samples is determined by means of HPLC/MS/MS. The concentrations of glucuronided estetrol (D-ring) in the urine samples is also determined with the help of HPLC/MS/MS."}},
  "data": [
    {"compound": "C[C@]12CC[C@@H]3c4ccc(O)cc4CC[C@H]3[C@@H]1[C@@H](O)[C@@H](O)[C@@H]2O", "note": "[Anhydrous estetrol, estetrol]", "values": [
      {"measurement": "Hygroscopicity", "value": "highly hygroscopic"},
      {"measurement": "Rate of dissolution into saliva", "setting": "[1]", "value": "dissolves more rapidly into saliva than estetrol monohydrate"}
    ]},
    {"compound": "C[C@]12CC[C@@H]3c4ccc(O)cc4CC[C@H]3[C@@H]1[C@@H](O)[C@@H](O)[C@@H]2O", "note": "[estetrol, 1,3,5 (10)-estratrien-3,15α,16α,17β-tetrol]", "values": [
      {"measurement": "Estrogenic effects in rat models", "setting": "[2]", "value": "exhibited estrogenic effects on the vagina, the uterus (both myometrium and endometrium), body weight, bone mass, bone strength, hot flushes and on ovulation (inhibition)"},
      {"measurement": "Tumour development in DMBA mammary tumour model", "setting": "[3]", "value": "prevented tumour development"},
      {"measurement": "Binding selectivity to estrogen receptors", "setting": "[4]", "value": "binds highly selective to the estrogen receptors with preference for the ERα form of the receptor"},
      {"measurement": "Effect in human breast cancer cells", "setting": "[5]", "value": "anti-estrogenic effect"},
      {"measurement": "Oral bioavailability", "setting": "[6]", "value": "high and dose-proportional"},
      {"measurement": "Terminal elimination half-life", "setting": "[6]", "value": "about 28 hours"},
      {"measurement": "Binding to SHBG", "setting": "[7]", "value": "does not bind"},
      {"measurement": "Stimulation of SHBG production", "setting": "[8]", "value": "does not stimulate the production of SHBG"},
      {"measurement": "Bioavailability of sublingually administered estetrol versus orally administered estetrol", "setting": "[9]; fasting, sublingual two 100 mg tablets (5 mg each, composition of Example 7) vs oral 83 mg tablet", "value": "comparable or even superior to orally administered estetrol"},
      {"measurement": "Onset of bioavailability, sublingual versus oral", "setting": "[9]; fasting, sublingual two 100 mg tablets vs oral 83 mg tablet", "value": "earlier bioavailability compared to orally administered estetrol"},
      {"measurement": "Impact on a liver function parameter, sublingual", "setting": "[9]; sublingual tablets vs oral tablet", "value": "less impact on a liver function parameter"}
    ]}
  ]
}
